Experimental data published in article PMC5556108, “In vivo evaluation of radiotracers targeting the melanin-concentrating hormone receptor 1: [^11C]SNAP-7941 and [^18F]FE@SNAP reveal specific uptake in the ventricular system” (Scientific Reports, 2017).
Counter-ions that a name gives are not always drawn. Like-named read-outs stand apart in the source and are kept apart here.

Tests used:
hMCHR1 = molecular target: T1, hMCHR1 (Homo sapiens, UniProt Q99705); assay: Competitive binding studies: displacement of specific [125I]MCH binding on CHO-K1 cell membranes; settings: for binding cooperativity (from Hill slope factor) / Hill slope factor: displacement of [125I]MCH; for binding cooperativity (from Hill slope factor): CHO-K1 cell membranes expressing hMCHR1
T1 construct: purchased PerkinElmer, Inc., Waltham, USA; host or cells: CHO-K1 cell membranes
T1 sequence (Q99705 whole entry): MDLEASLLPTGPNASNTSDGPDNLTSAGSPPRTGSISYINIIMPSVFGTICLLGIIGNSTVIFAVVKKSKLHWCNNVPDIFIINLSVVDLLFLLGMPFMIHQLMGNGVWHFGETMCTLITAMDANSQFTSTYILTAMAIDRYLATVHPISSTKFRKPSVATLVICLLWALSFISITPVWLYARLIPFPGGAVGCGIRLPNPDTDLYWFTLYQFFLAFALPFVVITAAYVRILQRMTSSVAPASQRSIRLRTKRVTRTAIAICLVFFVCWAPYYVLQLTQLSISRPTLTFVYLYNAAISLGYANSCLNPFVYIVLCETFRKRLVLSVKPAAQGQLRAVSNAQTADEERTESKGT
Procedure: Competitive binding studies were conducted on CHO-K1 cell membranes expressing the hMCHR1 (PerkinElmer, Inc., Waltham, USA). Briefly, cell membranes (10 µg/mL) were dissolved in 500 µL 50 mM Tris buffer (pH 7.4) (containing 10 mM MgCl2, 2 mM EDTA, 0.1% bacitracin and 0.2% BSA). […] All non-labelled compounds were initially dissolved in DMSO and diluted with deionized water to the final concentration, where the amount of DMSO never exceeded 5%. The membranes were incubated in vials at room temperature for 120 min. Subsequently, bound and free fractions of radioligand were separated by centrifugation at 40 000 × g for 20 min. The supernatants were removed into new vials and pellets were washed twice with 800 µL ice cold Tris buffer. The pellets were finally dissolved in 1300 µL Tris buffer and the radioactivity of both, the supernatant and the pellet, was measured in a Gamma Counter (2480 WIZARD[2], PerkinElmer, Waltham, MA, USA). The half-maximum inhibitory concentration (IC50) was determined using GraphPad Prism 6.0 (GraphPad Software, Inc., San Diego, CA, USA) and converted into the Ki using the Cheng Prusoff equation[38].

MCHR1 [1] = molecular target: T2, MCHR1 (Rattus norvegicus, UniProt P97639); assay: Small-animal PET/CT/MRI brain imaging, radiotracer uptake (SUV) under baseline and displacement conditions; type: in vivo
T2 construct: Small-animal PET/MRI brain scans in healthy rats evinced high radiotracer uptake in the entire ventricular system; from tissue; host or cells: brain (whole brain, ventricular system) of male Sprague-Dawley rats, in vivo / ex vivo
T2 sequence (P97639 whole entry): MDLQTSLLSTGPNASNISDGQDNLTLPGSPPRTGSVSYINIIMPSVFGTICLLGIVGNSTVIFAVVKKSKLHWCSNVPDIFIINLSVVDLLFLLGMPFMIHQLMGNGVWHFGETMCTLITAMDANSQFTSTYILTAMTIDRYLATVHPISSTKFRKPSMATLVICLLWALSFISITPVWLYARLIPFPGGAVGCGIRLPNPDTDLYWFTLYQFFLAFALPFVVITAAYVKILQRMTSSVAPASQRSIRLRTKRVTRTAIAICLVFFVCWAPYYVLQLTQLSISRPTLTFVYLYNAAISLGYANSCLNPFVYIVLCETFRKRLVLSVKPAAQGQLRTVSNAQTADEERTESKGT
Procedure: Twelve-weeks old male Sprague-Dawley rats (HIM:OFA, Himberg, Austria) weighing 389 ± 86 g were kept under controlled environmental conditions (22 ± 1 °C; 40–70% humidity; 12 hours light/dark cycle) with free access to water and standard laboratory animal diet (sniff R/M-H, sniff Spezialdiaeten GmbH, Soest, Germany). Prior to each experiment, the animals were placed into an induction chamber and anesthetized with 2.5% isoflurane. When unconscious, the animals were taken from the chamber and kept under anesthesia with 1.5–2.5% isoflurane provided via a mask during the whole experiment. Physiological parameters and the depth of anesthesia were monitored continuously. Administration of radioligands and MCHR1 antagonists were performed intravenously via the lateral tail vein. All procedures and protocols using animals have been approved by the Institutional Animal Care and Use Committee of the Medical University of Vienna, Austria, as well as by the Austrian Ministry of Science, Research and Economy (BMWFW-66.009/0029-WF/V/3b/2015). Every effort was made to minimize both, the suffering and the number of animals. All experimental procedures and protocols used in this study were performed in accordance with the relevant guidelines and regulations.
(§1) Anaesthetized rats were immobilized in a multimodal animal carrier unit (MACU; medres® – medical research GmbH, Cologne, Germany) and maintained at a body temperature of 37 °C throughout the whole experiment. Animals received either [^11C]SNAP-7941 or [^18F]FE@SNAP, followed by an injection of (±)-SNAP-7941 (15 mg/kg body weight, freshly dissolved in 400 µL; displacement condition; n = 3) or 400 µL of the respective solvent (vehicle condition; n = 3). The MCHR1 antagonists and the vehicle were administered either 15 min ([^11C]SNAP-7941) or 20 min ([^18F]FE@SNAP) after radiotracer injection as a bolus via the lateral tail vein. A stereotactic holder attached to the MACU was used to fix the head of the animals in a reliable and reproducible position within the whole imaging study. Experiments were initiated with a 7 minute cone beam attenuation CT (CBCT) of the brain (360 projections; binning 4 × 4; 80 kV; 500 µA; 200 ms exposure time) using a small-animal CT scanner (Siemens Inveon microSPECT/CT, Siemens Medical Solutions, Knoxville, USA). Subsequently the animals were positioned in the imaging chamber of a Siemens Inveon microPET scanner (Siemens Medical Solution, Knoxville, USA). [^11C]SNAP-7941 (75.85 ± 5.80 MBq; molar activity: 33.12 ± 25.73 GBq/µmol; radiochemical purity: >99%) or [^18F]FE@SNAP (44.12 ± 4.41 MBq; molar activity: 22.18 ± 9.72 GBq/µmol; radiochemical purity: >90%) was injected (200–800 µL) via the lateral tail vein and dynamic PET imaging was performed 45 min for the [^11C]-labeled radiotracer and 60 min for the [^18F]-labeled ligand. Immediately afterwards, T1-weighted high-resolution axial, coronary and sagittal brain MRI scans (2D FLASH; echo time: 3.85 ms; repetition time: 282 ms; flip angle: 30°; field of view: 35 × 35 mm; resolution: 68 × 68 µm; slice thickness: 0.4 mm) were performed using a Bruker BioSpec 94/30 USR small-animal MR system (Bruker BioSpin GmbH, Karlsruhe, Germany). At the end of the imaging study animals were sacrificed under anesthesia through an intravenous injection of pentobarbital sodium (Release® 300 mg/mL, WDT, Garbsen, Germany), brains were removed, weighed and subjected to radioactivity measurements in a Gamma Counter (2480 WIZARD[2], PerkinElmer, Waltham, MA, USA). Values were normalized to weight and dose and expressed as the percentage injected dose per gram of tissue (%ID/g).
CT raw data was reconstructed with a Feldkamp algorithm using a Shepp-Logan filter followed by standard rat beam-hardening correction and noise reduction (matrix size: 1024 × 1024; effective pixel size: 97.56 µm). […]

MCHR1 [2] = molecular target: T2, MCHR1; assay: Ex-vivo brain uptake measured in the Gamma Counter; settings: mean ± SEM
Procedure: as §1

[3] = test system: P-glycoprotein (P-gp) and Breast Cancer Resistance Protein (BCRP); design: method as in PMID 23829932; settings: due to binding to P-gp and BCRP; cited from earlier work
[4] = design: method as in PMID 24106662; settings: cited from earlier work
[5] = displacement of 0.1 nM [125I]MCH, CHO-K1 cell membranes expressing hMCHR1, Cheng Prusoff, mean ± SEM
[6] = displacement of 0.1 nM [125I]MCH, CHO-K1 cell membranes expressing hMCHR1, mean ± SEM, three independent experiments
[7] = CHO-K1 cell membranes expressing hMCHR1, mean ± SEM
[8] = i.v. tracer, before displacement, group displaced with 15 mg/kg (±)-SNAP-7941, mean ± SEM
[9] = i.v. tracer, before displacement, group displaced with vehicle, mean ± SEM
[10] = male, Sprague-Dawley, in vivo, iv
[11] = male, Sprague-Dawley, in vivo, iv, 15 mg/kg
[12] = group with displacement via (±)-SNAP-7941 (15 mg/kg)

SMILES	Ki (hMCHR1; [5]) [nM]	IC50 (hMCHR1; [6]) [nM]	binding cooperativity (from Hill slope factor) (hMCHR1)	Hill slope factor (hMCHR1; [7])	IC50 (hMCHR1) [nM]	Ki (hMCHR1) [nM]	SUVbw whole brain, baseline (MCHR1 [1]; [8]) [g/mL]	SUVbw ventricular system, baseline (MCHR1 [1]; [9]) [g/mL]	SUVbw whole brain, baseline (MCHR1 [1]; [9]) [g/mL]	SUVbw ventricular system, baseline (MCHR1 [1]; [10]) [g/mL]	SUVbw ventricular system, displacement (MCHR1 [1]; [10]) [g/mL]	SUVbw whole brain, displacement (MCHR1 [1]; [10]) [g/mL]	SUVbw ventricular system, displacement (MCHR1 [1]; [11]) [g/mL]	SUVbw whole brain, displacement (MCHR1 [1]; [11]) [g/mL]	Ex-vivo brain uptake, normalized value (MCHR1 [2]; [12]) [%ID/g]	Ex-vivo brain uptake, normalized value (MCHR1 [2]; vehicle group) [%ID/g]	blood-brain-barrier penetration [3]	metabolism [4]
COCC1=C(C(=O)OC)[C@H](c2ccc(F)c(F)c2)N(C(=O)NCCCN2CCC(c3cccc(NC(C)=O)c3)CC2)C(=O)N1 [(+)-SNAP-7941, (+)-methyl(4 S)-3-{[(3-{4-[3-(acetylamino)phenyl]-1piperidinyl}propyl)amino]carbonyl}-4-(3,4-difluorophenyl)-6-(methoxymethyl)-2-oxo-1,2,3,4-tetra-hydro-5-pyrimidenecarboxylate hydrochloride]	–	–	strong positive cooperativity	8.89 ± 1.59	7.7 ± 0.35	5.37 ± 0.25	–	–	–	–	–	–	–	–	–	–	–	–
COCC1=C(C(=O)O[11CH3])[C@H](c2ccc(F)c(F)c2)N(C(=O)NCCCN2CCC(c3cccc(NC(C)=O)c3)CC2)C(=O)N1 [[^11C]SNAP-7941]	–	–	–	–	–	–	0.41 ± 0.03	0.65 ± 0.04	0.35 ± 0.03	0.64 ± 0.08	0.71 ± 0.04	0.34 ± 0.02	0.32 ± 0.04	0.31 ± 0.03	0.015 ± 0.002	0.023 ± 0.002	limited blood-brain-barrier penetration	–
COCC1=C(C(=O)OCC[18F])[C@H](c2ccc(F)c(F)c2)N(C(=O)NCCCN2CCC(c3cccc(NC(C)=O)c3)CC2)C(=O)N1 [[^18F]FE@SNAP]	–	–	–	–	–	–	0.41 ± 0.01	0.72 ± 0.01	0.43 ± 0.02	0.69 ± 0.06	0.73 ± 0.02	0.44 ± 0.02	0.50 ± 0.04	0.41 ± 0.02	0.018 ± 0.003	0.020 ± 0.001	–	fast metabolism

Second part, led by results:

Ki (hMCHR1; [5]) [nM]	IC50 (hMCHR1; [6]) [nM]	binding cooperativity (from Hill slope factor) (hMCHR1)	Hill slope factor (hMCHR1; [7])	IC50 (hMCHR1) [nM]	Ki (hMCHR1) [nM]	SMILES	SUVbw whole brain, baseline (MCHR1 [1]; [8]) [g/mL]	SUVbw ventricular system, baseline (MCHR1 [1]; [9]) [g/mL]	SUVbw whole brain, baseline (MCHR1 [1]; [9]) [g/mL]	SUVbw ventricular system, baseline (MCHR1 [1]; [10]) [g/mL]	SUVbw ventricular system, displacement (MCHR1 [1]; [10]) [g/mL]	SUVbw whole brain, displacement (MCHR1 [1]; [10]) [g/mL]	SUVbw ventricular system, displacement (MCHR1 [1]; [11]) [g/mL]	SUVbw whole brain, displacement (MCHR1 [1]; [11]) [g/mL]	Ex-vivo brain uptake, normalized value (MCHR1 [2]; [12]) [%ID/g]	Ex-vivo brain uptake, normalized value (MCHR1 [2]; vehicle group) [%ID/g]	blood-brain-barrier penetration [3]	metabolism [4]
3.91 ± 0.74	5.61 ± 1.06	no binding cooperativity	2.66 ± 0.39	–	–	COCC1=C(C(=O)OC)[C@H](c2ccc(F)c(F)c2)N(C(=O)NCCCN2CCC(c3cccc(NC(C)=O)c3)CC2)C(=O)N1 (racemic) [(±)-SNAP-7941]	–	–	–	–	–	–	–	–	–	–	–	–
9.98 ± 1.12	14.3 ± 1.61	no binding cooperativity	1.30 ± 0.33	–	–	COCC1=C(C(=O)OCCF)[C@H](c2ccc(F)c(F)c2)N(C(=O)NCCCN2CCC(c3cccc(NC(C)=O)c3)CC2)C(=O)N1 [FE@SNAP, (+)-(2-Fluoroethyl)(4 S)-3-{[(3-{4-[3-(acetylamino)phenyl]-1-piperidinyl}propyl)amin]carbonyl}-4-(3,4-difluorophenyl)-6-(methoxymethyl)-2-oxo-1,2,3,4-tetra-hydro-5-pyrimidenecarboxylate]	–	–	–	–	–	–	–	–	–	–	–	–
